IC50 and CC50 data for 17 compounds are collected here from patent US11459296B2, “Antibacterial compounds” (INFEX Therapeutics Limited, priority 2018, dated 2022).

In brackets after ≈: the same amount, converted by molar mass. Where a name gives a salt, the structure may show the parent alone.

NDM-1, sequence (C7C422 whole entry, looked up, species assumed): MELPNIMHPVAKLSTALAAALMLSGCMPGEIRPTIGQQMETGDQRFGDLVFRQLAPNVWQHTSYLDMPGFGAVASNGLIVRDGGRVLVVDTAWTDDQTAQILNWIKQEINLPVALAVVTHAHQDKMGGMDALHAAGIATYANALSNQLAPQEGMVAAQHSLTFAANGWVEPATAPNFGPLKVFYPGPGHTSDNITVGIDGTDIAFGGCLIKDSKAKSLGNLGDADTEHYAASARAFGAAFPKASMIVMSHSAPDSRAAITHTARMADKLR

One data set deals with NDM-1 (Klebsiella pneumoniae, UniProt C7C422). Description: metallo-β-lactamase inhibition assay (nitrocefin). The class given is biochemical. As to conditions: 1.5 nM NDM-1, 100 μM nitrocefin, 37° C., pH 7.5. The method, then:
Compounds of the invention were tested in a metallo-β-lactamase inhibition assay to investigate mechanism of action of the compounds. Results are reported as the concentration of test article required to inhibit enzyme activity by 50% (IC50).
Inhibition of metallo-β-lactamase enzyme function was performed at 37° C. in buffer at pH 7.5 (50 mM HEPES, 150 mM NaCl, 0.1 mM ZnSO4, 20 μg/mL PEG4000), containing 1.5 nM NDM-1, 100 μM nitrocefin, and a range of concentrations of compound. Absorbance at 490 nm was measured using a BMG LABTECH FLUOstar Omega microplate reader every minute for 30 minutes. IC50S were determined from the average increase in OD per minute versus the Log 10 concentration of compound using GraphPad Prism.
Usually IC50 stands for the midpoint of a concentration-inhibition curve. Read a high IC50 as lower potency. `Cc1ccc(-c2ccn(S(N)(=O)=O)c2C(=O)O)cc1` [Example 2, 3-(p-tolyl)-1-sulfamoyl-1H-pyrrole-2-carboxylic acid, sodium salt]: the IC50 was determined as 479 nM.

In turn, `Nc1ncc(-c2ccn(S(N)(=O)=O)c2C(=O)O)cn1` [Example 25, 3-(2-Aminopyrimidin-5-yl)-1-sulfamoyl-pyrrole-2-carboxylic acid, sodium salt] registered an IC50 of 1360 nM.

In the case of `NC(=O)c1ccc(-c2ccn(S(N)(=O)=O)c2C(=O)O)cc1` [Example 26, 3-(4-Carbamoylphenyl)-1-sulfamoyl-pyrrole-2-carboxylic acid], the IC50 is 512 nM.

Take `Nc1nc2ccc(-c3ccn(S(N)(=O)=O)c3C(=O)O)cn2n1` [Example 47, 3-(2-Amino-[1,2,4]triazolo[1,5-a]pyridin-6-yl)-1-sulfamoyl-pyrrole-2-carboxylic acid hydrochloride]: the IC50 was determined as 656 nM.

The compound `NCCC(=O)N1CCC(c2ccn(S(N)(=O)=O)c2C(=O)O)CC1` [Example 63, 3-[1-(3-Aminopropanoyl)-4-piperidyl]-1-sulfamoyl-pyrrole-2-carboxylic acid] returned an IC50 of 834 nM.

On to `NCCCNC(=O)c1ccc(-c2ccn(S(N)(=O)=O)c2C(=O)O)cc1` [Example 51, 3-[4-(3-Aminopropylcarbamoyl)phenyl]-1-sulfamoyl-pyrrole-2-carboxylic acid hydrochloride], for which it took 263 nM to reach half-maximal inhibition (IC50).

For the compound `Nc1nc2c(-c3ccn(S(N)(=O)=O)c3C(=O)O)cccc2s1` [Example 53, 3-(2-Amino-1,3-benzothiazol-4-yl)-1-sulfamoyl-pyrrole-2-carboxylic acid hydrochloride], the midpoint of inhibition, the IC50, lay at 314 nM.

`CC(=O)Nc1ccc(-c2ccn(S(N)(=O)=O)c2C(=O)O)cn1` [Example 24, 3-(6-Acetamido-3-pyridyl)-1-sulfamoyl-pyrrole-2-carboxylic acid] yielded an IC50 of 608 nM.

Turning to `NS(=O)(=O)n1ccc(-c2cccc(C3CCNCC3)c2)c1C(=O)O` [Example 40, 3-[3-(4-Piperidyl)phenyl]-1-sulfamoyl-pyrrole-2-carboxylic acid hydrochloride], half-maximal inhibition (IC50) was put at 264 nM.

Test system in another data set: not listed separately
Description: Cytotoxicity Assay (CellTiter-Glo). The class given is cell-based. To be noted: human, Hep G2 cells (ATCC HB-8065); 24 h exposure, cell viability; read-out: HepG2 CC50. The protocol: Cytotoxicity was evaluated in human Hep G2 cells (ATCC HB-8065) seeded at a density of 2×10^5 cells per well and incubated for 24 h at 37° C., 5% CO2. Cells were exposed to a doubling dilution series of test article. After 24 h exposure, the viability of the cells was determined using CellTiter-Glo® (Promega, Wis., USA) according to the manufacturer's instructions. Results are reported as the concentration of test article required to reduce cell viability by 50% (CC50).
(Cellular ATP, detected with luciferase, serves as a proxy for viable cell number.)
Usually CC50 stands for the concentration giving 50% cytotoxicity. As for `Cc1ccc(-c2ccn(S(N)(=O)=O)c2C(=O)O)cc1` [Example 2, 3-(p-tolyl)-1-sulfamoyl-1H-pyrrole-2-carboxylic acid, sodium salt], the CC50 at 24 h is over 128 µg/mL.

As to `CS(=O)(=O)N1CCC(c2ccn(S(N)(=O)=O)c2C(=O)O)CC1` [Example 59, 3-(1-Methylsulfonyl-4-piperidyl)-1-sulfamoyl-pyrrole-2-carboxylic acid], the CC50 at 24 h is over 256 µg/mL.

Consider `NS(=O)(=O)n1ccc(C2CCCCC2)c1C(=O)O` [Example 10, 3-Cyclohexyl-1-sulfamoyl-pyrrole-2-carboxylic acid, sodium salt], for which the CC50 at 24 h is 145 µg/mL.

Consider `NS(=O)(=O)n1ccc(-c2ccc(S(=O)(=O)N3CCNCC3)cc2)c1C(=O)O` [Example 35, 3-[4-(Piperazine-1-sulfonyl)phenyl]-1-sulfamoyl-1H-pyrrole-2-carboxylic acid], for which the CC50 at 24 h is over 256 µg/mL.

As for `CC(C)(C)OC(=O)N1CCN(S(=O)(=O)c2ccc(-c3ccn(S(N)(=O)=O)c3C(=O)O)cc2)CC1` [Example 17, 3-[4-(4-tert-Butoxycarbonylpiperazin-1-yl)sulfonylphenyl]-1-sulfamoyl-pyrrole-2-carboxylic acid, sodium salt], the CC50 at 24 h came to 252 µg/mL.

Take `NS(=O)(=O)n1ccc(Cc2ccccc2)c1C(=O)O` [Example 54, 3-Benzyl-1-sulfamoyl-1H-pyrrole-2-carboxylic acid]: the CC50 at 24 h is 248 µg/mL (≈ 884 µM).

In the case of `NS(=O)(=O)n1ccc(-c2ccc(N3CCOCC3)nc2)c1C(=O)O` [Example 16, 3-[6-(Morpholin-4-yl)pyridin-3-yl]-1-sulfamoyl-1H-pyrrole-2-carboxylic acid], the CC50 at 24 h was over 64 µg/mL.

With `NS(=O)(=O)n1ccc(-c2ccccc2)c1C(=O)O` [Example 3, 3-Phenyl-1-sulfamoyl-1H-pyrrole-2-carboxylic acid, sodium salt], the CC50 at 24 h is over 128 µg/mL.

Regarding `NS(=O)(=O)n1ccc(-c2ccc(OC3CCNCC3)cc2)c1C(=O)O` [Example 37, 3-[4-(Piperidin-4-yloxy)phenyl]-1-sulfamoyl-1H-pyrrole-2-carboxylic acid hydrochloride], the CC50 at 24 h is over 256 µg/mL.
